The record followed here is patent publication US20130273649A1, “Culture medium for pluripotent stem cells” (UNIVERSITY OF SOUTHERN CALIFORNIA, priority 2012, published 2013).

Holding throughout (type): cell-based
For one experiment, the system named is mouse EpiSCs. Kind of experiment: Mouse EpiSC self-renewal culture. As to conditions: for EpiSC self-renewal / maintenance of undifferentiated state: CD1 mouse EpiSCs, GMEM/10% FBS, no FGF2/activin unless named, CHIR 3 μM, PD0325901 1 μM, XAV939 2 μM, IWR-1 2.5 μM, IWP-2 2.5 μM, Pyrvinium 100 nM. The source says:
We therefore reasoned that if CHIR induces EpiSC differentiation through stabilization of β-catenin, de-stabilization of β-catenin might promote EpiSC self-renewal. We tested this hypothesis by administering the tankyrase inhibitor XAV939 to mouse EpiSC cultures. XAV939-mediated inhibition of tankyrase stabilizes Axin, leading to the formation of the β-catenin destruction complex, composed of GSK3, Axin and adenomatous polyposis coli (APC) (Huang et al., 2009). […] EpiSCs cultured in CHIR/XAV could be routinely passaged by single-cell dissociation and replating onto gelatin-coated dishes, and could be cryo-preserved and recovered at high efficiency by standard techniques.
final concentrations: CHIR99021 (3 μM), PD0325901 (1 μM), XAV939 (Sigma, 2 μM), IWR-1 (Sigma, 2.5 μM), IWP-2 (Stemgent, 2.5 μM), Pyrvinium (Sigma, 100 nM), recombinant human FGF2 (PeproTech, 10 ng/ml), and recombinant human activin A (PeproTech, 10 ng/ml). CHIR99021 and PD0325901 were synthesized in the Division of Signal Transduction Therapy, University of Dundee, UK.
The basal medium for mouse EpiSC culture is the conventional mouse ESC medium, which consists of GMEM (Sigma) supplemented with 10% fetal bovine serum (FBS) (Hyclone), 2 mM L-glutamine (Invitrogen), 1 mM sodium pyruvate (Invitrogen), 1% nonessential amino acids (Invitrogen), and 0.1 mM (3-mercaptoethanol. Mouse EpiSCs were derived and maintained in the basal medium supplemented with FGF2/activin, CHIR/XAV, or CHIR/IWR-1. The basal medium for rat EpiSC culture is N2B27 (Tong et al., 2011), which was prepared by mixing 500 ml of DMEM/F12 (Invitrogen) with 500 ml of Neurobasal™ medium (Invitrogen), and adding 5 ml of N2 (Invitrogen), 10 ml of B27 (Invitrogen), 5 ml of Glutamax™ (Invitrogen), and 1 ml of 0.1 M β-mercaptoethanol (Sigma). The basal medium for human ESC culture consists of Knockout™ DMEM/F12 supplemented with 20% KSR (Invitrogen), 1% nonessential amino acids, 2 mM L-glutamine, and 0.1 mM (3-mercaptoethanol. Human ESCs were cultured in the basal medium supplemented with FGF2, CHIR/XAV, or CHIR/IWR-1.
Post-implantation epiblasts were isolated from mouse or rat embryos and dissociated into small clumps as previously described (Chenoweth and Tesar, 2010). Epiblast fragments were placed into 4-well plates pre-coated with 0.1% gelatin (for mouse epiblasts) or pre-seeded with γ-irradiated mouse embryonic fibroblasts (MEFs) (for rat epiblasts) and cultured in either the FGF2/activin or the CHIR/XAV conditions. Emerging EpiSCs were trypsinized and expanded every 2-3 days at a subculture ratio of 1:4. Animal experiments were performed according to the investigator's protocols approved by the University of Southern California Institutional Animal Care and Use Committee.

The test system of experiment [1] is β-catenin/TCF-responsive TOPFlash reporter. Description: TOPFlash reporter assay in H9 human ESCs. The following applies: 24 h, added to CHIR. How it is done:
(A) TOPFlash™ assay in H9 human ESCs subjected to the indicated treatments for 24 h. Data represent mean±s.d. of three biological replicates. (B) Representative phase contrast and alkaline phosphatase (AP) staining images of H9 human ESCs cultured in the indicated conditions for 3 passages. (C) Phase contrast images of H9 human ESCs cultured in CHIR/XAV or CHIR/IWR-1 for 11 passages. (D) Colony forming efficiency assay of H9 human ESCs cultured in FGF2 or CHIR/IWR-1 conditions. Data represent mean±s.d. of three biological replicates. Right panel: a representative image showing AP staining of colonies formed from H9 human ESCs cultured in either FGF2 or CHIR/IWR-1 condition. (E) Human ESCs cultured in CHIR/IWR-1 for 11 passages were immunostained with the indicated antibodies. (F) Embryoid bodies (EBs) were generated from H9 human ESCs cultured in CHIR/IWR-1 for 11 passages. The outgrowths of EBs were immunostained with the indicated antibodies. (G) H&E staining of teratomas generated from H9 ESCs cultured in CHIR/IWR-1 for 20 passages. (H) Western blot analysis of Axin1 and Axin2 expression in HES3 human ESCs treated with the indicated cytokines/inhibitors for 24 h. (I) Immunofluorescence images of H9 human ESCs (passage 5 in CHIR) overexpressing Flag-tagged Axin2. (J) Representative phase contrast and immunofluorescence images of HES2 human ESCs overexpressing ΔNβ-catenin-ERT2 at passage 5 in basal medium only. These cells were cultured in basal medium only for more than 10 passages and remained morphologically undifferentiated. (K) Phase contrast images of HES2 human ESCs overexpressing ΔNβ-catenin (left panel, passage 2 in basal medium/FGF2) or ΔNβ-catenin/A295W/I296W mutant (right panel, passage 5 in basal medium only). Scale bars, 50 μm (B, C, E-G, and I-K). (L) Model of mouse EpiSC and human ESC self-renewal mediated by β-catenin. In the absence of Wnt or GSK3 inhibitor, a β-catenin destruction complex, containing Axin1, GSK3, and APC is formed, leading to the degradation of β-catenin and differentiation (left). In the presence of Wnt or GSK3 inhibitor, β-catenin is stabilized and can initiate cellular responses related to both self-renewal and differentiation. Stabilized β-catenin induces differentiation when it translocates into the nucleus and binds TCFs to activate downstream targets (middle). Addition of XAV or IWR-1 stabilizes Axin2. […]
(§1) For quantifying relative Oct3/4 enhancer activities, pGL3-Oct4 DE and pGL3-Oct4 PE plasmids (gifts from Hans Schöler's lab) were co-transfected with the Renilla vector, using the Amaxa™ Transfection Kit (Lonza). […] For quantifying relative β-catenin/Tcf transcriptional activity, pGL2-SuperTOP™ plasmid (gift from Randall Moon) was co-transfected with the Renilla vector and assayed accordingly.
A general note: A reporter such as luciferase makes a cellular process visible.

The subject of experiment [2] is β-catenin-TCF transcriptional activity. Kind of experiment: β-catenin-TCF transcriptional activity induced by CHIR. The following applies: data not shown. The source says:
The role of β-catenin in human ESC self-renewal has been controversial. […] Our finding that activation of β-catenin can promote human ESC self-renewal or differentiation, and that the respective outcome is dictated by whether β-catenin translocates into the nucleus, provides a rational explanation for earlier, seemingly paradoxical results. […] Some of the contradicted results on the role of β-catenin in human ESC self-renewal, therefore, might be attributable to variations in the subcellular localization of β-catenin under different culture conditions.

Experiment [3] deals with β-catenin/TCF-responsive TOPFlash reporter. Description: TOPFlash reporter assay in mouse EpiSCs. The following applies: CD1 mouse EpiSCs, 12 hours, added to CHIR. The protocol: (§2) (A) TOPFlash™ assay in CD1 mouse EpiSCs treated with the indicated inhibitors for 12 hours. Data represent mean±s.d. of three biological replicates. (B) Representative phase contrast images of CD1 mouse EpiSCs cultured in the indicated conditions for 7 days. (C) Western blot analysis of CD1 mouse EpiSCs treated with the indicated inhibitors for 12 h. (D) qRT-PCR analysis of Axin1 and Axin2 mRNA levels in CD1 mouse EpiSCs stably transfected with Axin1 shRNA or Axin2 shRNA. Data represent mean±s.d. of three biological replicates. (E) Colony assay on CD1 mouse EpiSCs stably transfected with scramble, Axin1, or Axin2 shRNAs. Cells were plated onto a 6-well plate at a density of 5,000 cells/well and cultured in CHIR/IWR-1. Colonies were counted 7 days after plating. Data represent the total combined numbers of colonies from two independent experiments in which each shRNA-transfected group was cultured in one well of a 6-well plate. (F) Representative phase contrast images of CD 1 mouse EpiSCs stably transfected with the indicated shRNAs and cultured in CHIR/IWR-1 for 7 days. (G) Western blot analysis of CD1 mouse EpiSCs overexpressing Flag-tagged Axin1 or Axin2. (H) Representative phase contrast images of CD1 mouse EpiSCs overexpressing Axin1 or Axin2 and cultured in CHIR for 7 days. Axin2-overexpressing EpiSCs could be continually passaged in CHIR alone. Scale bars, 50 μm (B, F and H)
Next, we investigated the mechanism by which CHIR/XAV promotes EpiSC self-renewal. By inhibiting GSK3 phosphorylation of β-catenin, CHIR stabilizes β-catenin, which then trans-locates to the nucleus and forms complexes with DNA-binding proteins, including TCFs, to activate transcription (Logan and Nusse, 2004). […]
as §1

Experiment [4] deals with Axin1. Description: Western blot of Axin1 in mouse EpiSCs. The following applies: CD1 mouse EpiSCs treated 12 h. How it is done: as §2
Next, we investigated the mechanism by which CHIR/XAV promotes EpiSC self-renewal. By inhibiting GSK3 phosphorylation of β-catenin, CHIR stabilizes β-catenin, which then trans-locates to the nucleus and forms complexes with DNA-binding proteins, including TCFs, to activate transcription (Logan and Nusse, 2004). […] Axin has two isoforms, Axin1 and Axin2. […] The expression level of Axin2, but not Axin1, was also elevated by CHIR treatment (FIG. 4C), an outcome consistent with previous findings that Axin2 is a direct downstream target of Wnt/β-catenin signaling (Jho et al., 2002). […]
For orientation: In western blotting, separated proteins are transferred to a membrane and probed.

The subject of experiment [5] is Axin2. Description: Western blot of Axin2 in mouse EpiSCs. As to conditions: CD1 mouse EpiSCs treated 12 h.
Experiment [6] deals with Axin1. Description: Western blot of Axin1 in human ESCs. The following applies: human ESCs treated 24 h. How it is done:
(A) TOPFlash™ assay in H9 human ESCs subjected to the indicated treatments for 24 h. Data represent mean±s.d. of three biological replicates. (B) Representative phase contrast and alkaline phosphatase (AP) staining images of H9 human ESCs cultured in the indicated conditions for 3 passages. (C) Phase contrast images of H9 human ESCs cultured in CHIR/XAV or CHIR/IWR-1 for 11 passages. (D) Colony forming efficiency assay of H9 human ESCs cultured in FGF2 or CHIR/IWR-1 conditions. Data represent mean±s.d. of three biological replicates. Right panel: a representative image showing AP staining of colonies formed from H9 human ESCs cultured in either FGF2 or CHIR/IWR-1 condition. (E) Human ESCs cultured in CHIR/IWR-1 for 11 passages were immunostained with the indicated antibodies. (F) Embryoid bodies (EBs) were generated from H9 human ESCs cultured in CHIR/IWR-1 for 11 passages. The outgrowths of EBs were immunostained with the indicated antibodies. (G) H&E staining of teratomas generated from H9 ESCs cultured in CHIR/IWR-1 for 20 passages. (H) Western blot analysis of Axin1 and Axin2 expression in HES3 human ESCs treated with the indicated cytokines/inhibitors for 24 h. (I) Immunofluorescence images of H9 human ESCs (passage 5 in CHIR) overexpressing Flag-tagged Axin2. […]

Experiment [7] deals with Axin2. Description: Western blot of Axin2 in human ESCs. The following applies: human ESCs treated 24 h.

As for `Cc1cc(/C=C/c2ccc3cc(N(C)C)ccc3[n+]2C)c(C)n1-c1ccccc1` [Pyrvinium], in the experiment with mouse EpiSCs, the “EpiSC self-renewal / maintenance of undifferentiated state” value is listed as “unable to support EpiSC self-renewal”.
For 4-hydroxytamoxifen [4-OHT], in the experiment on mouse EpiSCs (1 μM 4-OHT, even in the presence of IWR-1), the “differentiation of ΔNβ-catenin-ERT2-overexpressing EpiSCs” value is given as “resulted in rapid differentiation”.
Take `Cc1ccc2nc(NC(=O)CSc3nc4c(c(=O)n3-c3ccccc3)SCC4)sc2c1` [IWP-2]: the “effect on TOPFlash activity induced by CHIR” value in experiment [1] was “only partially suppressed”. For the same molecule, the “EpiSC self-renewal / maintenance of undifferentiated state” value in the experiment with mouse EpiSCs was “unable to support EpiSC self-renewal”.
“bovine serum albumin: bovine serum albumin”: the “effect on β-catenin-TCF transcriptional activity induced by CHIR” value in experiment [2] is on record as “partially block”.
For the molecule `O=C(Nc1cccc2cccnc12)c1ccc(N2C(=O)[C@@H]3[C@H](C2=O)[C@@H]2C=C[C@H]3C2)cc1` [IWR-1, 4-(1,3,3a,4,7,7a-Hexahydro-1,3-dioxo-4,7-methano-2H-isoindol-2-yl)-N-8-quinolinyl-Benzamide], the “effect on TOPFlash activity induced by CHIR” value in experiment [3] was “blocked TOPFlash™ reporter activity induced by CHIR”; in experiment [1] it was “abolished this TOPFlash™ activity”. Besides, the “amount of Axin1 protein” value in the experiment with Axin1 [4] and with Axin1 [6] was “significantly increased” each time. The “amount of Axin2 protein” value with Axin2 [5] and with Axin2 [7] was “significantly increased” each time.
